Measured values reported in patent US20140271820A1, “LIPOSOME OXALIPLATIN COMPOSITIONS FOR CANCER THERAPY” (priority 2013, published 2014).
Where two headings read alike, the source gives them in different places.

Tests used:
HT29 = test: In vitro cytotoxicity, HT29; type: cell-based, human
Description: A number of commercially available and privately-acquired tumor cell lines were initially surveyed for their sensitivity to various platinum agents, including oxaliplatin. […] The cell lines were also surveyed for sensitivity to 5FU.
Two studies of the novel liposome formulation containing oxaliplatin were conducted in this tumor model.

[1] = tested on: human colon tumor cell lines; test: In vitro cytotoxicity survey, panel of human colon tumor cell lines; type: cell-based; conditions: HT-29, all cell lines tested except HT29, 72 h
Description: (§1) A number of commercially available and privately-acquired tumor cell lines were initially surveyed for their sensitivity to various platinum agents, including oxaliplatin. […] The cell lines were also surveyed for sensitivity to 5FU. […] Additionally, literature survey was conducted in search of in vitro-generated oxaliplatin-resistant colorectal cell lines to potentially include pre-clinical pharmacology studies in an effort to show improved sensitivity of these cells to a liposomal vs. free oxaliplatin treatment. From this survey, […] other oxaliplatin-resistant colorectal tumor lines were identified; HT29 (Plascencia et al., 2006; Yang et al., 2006), and DLD-1 (Kashiwagi et al., 2011).

[2] = tested on: KB (epidermoid oral carcinoma human tumor) cells; test: In vitro cytotoxicity, KB cells
Description: (§2) Prior to initiation of this study, oxaliplatin was evaluated for drug tolerance in non-tumor bearing immunodeficient mice.

[3] = pure lipid; cited from earlier work
HCT-116 cells = test: In vitro cytotoxicity survey, HCT-116; type: cell-based, human; conditions: 72 h
Description: as §1

[4] = Drug tolerance in non-tumor bearing immunodeficient mice; type: in vivo
Description: as §2

KB xenograft tumors = test: Single-dose efficacy in mice bearing KB xenografts; type: in vivo, nude mice; conditions: 15 mg/kg
Excerpt: One-way ANOVA followed by Neuman-Keuls post hoc test.

O=c1[nH]cc(F)c(=O)[nH]1 [Sample 5FU, 5-fluorouracil]
IC50 (HT29; Homo sapiens, HT-29, HT29, 72 h): > 50 µM
IC50 [1]: 7 to 10 µM

N.N.[Cl][Pt][Cl] [cisplatin]
IC50 ([2]; read-out: sensitivity (IC50), KB cell-line): 4 µM

CCCCCCCC/C=C\CCCCCCCC(=O)O[C@H](COC(=O)CCCCCCCCCCCCCCC)COP(=O)([O-])OCC[N+](C)(C)C [POPC, 1-palmitoyl-2-oleoyl-sn-glycero-3-phosphocholine]
gel-liquid crystalline thermal transition temperature [3]: around −2 °C

O=C1[O][Pt]2([NH][C@@H]3CCCC[C@H]3[NH]2)[O]C1=O [oxaliplatin, [(1R,2R)-cyclohexane-1,2-diamine](ethanedioato-O,O′)platinum(II)]
IC50 ([2]; KB cell-line, 72 h): 5.4 µM
IC50 ([2]; KB cells, cytotoxicity testing prior to injection): 5.3 µM
IC50 (HT29; HT29 and several other cell lines, 72 h): 5 to 10 µM
IC50 (HT29; HT29 cell line used in the present studies): 5.4 µM
IC50 (HCT-116 cells): 0.4 µM
drug tolerance (in words) ([4]; doses above 15 mg/kg (i.e., 20 mg/kg)): dehydration and unacceptable gross body weight losses
maximum tolerated dose (MTD) ([4]; mice): 15 mg/kg
tumor growth and survival compared to saline control (in words) (KB xenograft tumors): did not significantly inhibit tumor growth or increase survival
Median Survival (KB xenograft tumors; KB xenografts): 25.5
TGI (KB xenograft tumors; KB xenografts): 0%
